≈ marks a conversion by molar mass, not a printed value. Calls of active or inactive are those of the source.

For series [1], the system named is Staphylococcus aureus. Description: Antibacterial activity against methicillin resistant Staphylococcus aureus ATCC33591 infected in mouse model of abdominal infection assessed as reduction in mean bacterial load in blood at 5 mg/kg, ip treated for 24 hrs starting from 2 hrs post infection relative to control. More on the design: scale not given: the % may be the effect or the level left. The class given is functional.

The subject of series [2] is Staphylococcus aureus. Description: Bactericidal activity against methicillin resistant Staphylococcus aureus ATCC33591 assessed as inhibition of bacterial growth incubated for 24 hrs by resazurin dye based analysis. The class given is functional. (In general: The colour change of resazurin is a common sign of viable cells or microbes.)
The subject of a further series is Escherichia coli. Briefly: Antibacterial activity against Escherichia coli ATCC25922 assessed as inhibition of bacterial growth incubated for 24 hrs by broth microdilution method. The class given is functional.
Series [3] is described as follows: Cytotoxicity against human HepG2 cells assessed as cell viability at 32 to 64 ug/ml measured after 24 hrs by MTT assay. The series is classed as toxicity, cell-based. Particulars: at 32 to 64 µg/mL, dose 32-64 µg/ml, read-out: Activity.
Series [4] deals with Staphylococcus aureus. Description: Drug resistance, ratio of MIC for methicillin-resistant Staphylococcus aureus ATCC33591 after 18 passages to MIC for methicillin-resistant Staphylococcus aureus ATCC33591 after initial exposure. The class given is functional.
The subject of the next series is Enterococcus faecium. Description: Antibacterial activity against vancomycin-resistant Enterococcus faecium ATCC 700221 assessed as inhibition of bacterial growth incubated for 24 hrs by broth microdilution method. The class given is functional. Background: Broth dilution looks for growth in wells or tubes with falling amounts of substance.
In series [5] the test system is Staphylococcus aureus. Briefly: Antibacterial activity against methicillin resistant Staphylococcus aureus ATCC33591 assessed as eradication of viable bacteria at >8 times MIC measured after 24 hrs by time kill assay. The series is classed as functional, organism-based.
The test system of series [6] is Staphylococcus aureus. Briefly: Antibacterial activity against methicillin resistant Staphylococcus aureus ATCC33591 assessed as post antibiotic effect at 8 ug/ml measured after 2 hrs. The series is classed as functional. Particulars: dose 8 µg/ml.
For series [7], the system named is Staphylococcus aureus. Description: Antibacterial activity against methicillin resistant Staphylococcus aureus ATCC33591 assessed as inhibition of bacterial growth at 1 times MIC incubated for 24 hrs by time kill assay. The class given is functional, organism-based.
Series [8] has as its system Staphylococcus aureus. Briefly: Antibacterial activity against methicillin resistant Staphylococcus aureus ATCC33591 assessed as reduction in viable bacterial count at 2 times MIC measured within 24 hrs by time kill assay relative to control. The series is classed as functional.
For series [9], the system named is Staphylococcus aureus. Description: Antibacterial activity against Staphylococcus aureus ATCC25923 assessed as inhibition of bacterial growth incubated for 24 hrs by broth microdilution method. The class given is functional.
A short description of series [10]: Cytotoxicity against human L02 cells assessed as cell viability at 32 to 64 ug/ml measured after 24 hrs by MTT assay. The class given is toxicity, cell-based. Particulars: at 32 to 64 µg/mL, dose 32-64 µg/ml, read-out: Activity.
For series [11], the system named is Staphylococcus aureus. Briefly: Antibacterial activity against methicillin resistant Staphylococcus aureus ATCC33591 assessed as eradication of viable bacteria at >=4 times MIC measured within 24 hrs by time kill assay relative to control. The series is classed as functional.
Series [12] can be described thus: (§1) Antibacterial activity against Pseudomonas syringae pv. actinidiae assessed as inhibition of bacterial growth incubated for 24 hrs by broth microdilution method. The series is classed as functional.
The next series has as its system Ralstonia solanacearum. Briefly: Antibacterial activity against Ralstonia solanacearum assessed as inhibition of bacterial growth incubated for 24 hrs by broth microdilution method. The series is classed as functional.
For series [13], the system named is Staphylococcus aureus. Briefly: Antibacterial activity against methicillin resistant Staphylococcus aureus ATCC33591 assessed as post antibiotic effect at 16 ug/ml measured after 2 hrs. The class given is functional. Particulars: dose 16 µg/ml.
Series [14] relates to Staphylococcus aureus. Briefly: Bactericidal activity against Staphylococcus aureus ATCC25923 assessed as inhibition of bacterial growth incubated for 24 hrs by resazurin dye based analysis. The class given is functional.
In series [15] the test system is Staphylococcus aureus. Description: Antibacterial activity against methicillin resistant Staphylococcus aureus ATCC33591 infected in mouse model of abdominal infection assessed as reduction in mean bacterial load in blood at 10 mg/kg, ip treated for 24 hrs starting from 2 hrs post infection relative to control. The class given is functional. Set-up: scale not given: the % may be the effect or the level left.

The test system of series [16] is Staphylococcus aureus. Description: Ratio of MBC to MIC for Staphylococcus aureus ATCC25923. The series is classed as functional.
For series [17], the system named is Staphylococcus aureus. Description: Antibacterial activity against methicillin resistant Staphylococcus aureus ATCC33591 assessed as inhibition of bacterial growth incubated for 24 hrs by broth microdilution method. The series is classed as functional.
For series [18], the system named is Staphylococcus aureus. Description: Drug resistance, ratio of MIC for methicillin-resistant Staphylococcus aureus ATCC33591 after 16 passages to MIC for methicillin-resistant Staphylococcus aureus ATCC33591 after initial exposure. The series is classed as functional.
Series [19] relates to Staphylococcus aureus. Description: Drug resistance, ratio of MIC for methicillin-resistant Staphylococcus aureus ATCC33591 after 19 passages to MIC for methicillin-resistant Staphylococcus aureus ATCC33591 after initial exposure. The series is classed as functional.
The subject of series [20] is Staphylococcus aureus. Description: Antibacterial activity against methicillin resistant Staphylococcus aureus ATCC33591 infected in mouse model of abdominal infection assessed as reduction in mean bacterial load in blood at 2 mg/kg, ip treated for 24 hrs starting from 2 hrs post infection. The series is classed as functional, organism-based.
In series [21] the test system is Staphylococcus aureus. Briefly: Antibacterial activity against methicillin resistant Staphylococcus aureus ATCC33591 assessed as post antibiotic effect at 2 ug/ml measured after 2 hrs. The series is classed as functional. Particulars: dose 2 µg/ml.
For series [22], the system named is Staphylococcus aureus. Description: Antibacterial activity against methicillin resistant Staphylococcus aureus ATCC33591 assessed as post antibiotic effect at 1 ug/ml measured after 2 hrs. The class given is functional. Particulars: dose 1 µg/ml.
Series [23] deals with Pseudomonas syringae pv. actinidiae. The series is described as §1. The series is classed as functional.

In general, MBC refers to the smallest concentration meeting the test's criterion for killing. One may read the MIC as the least concentration at which growth counts as inhibited. Consider `O=C(Nc1ccc(C2NCCc3c2[nH]c2ccccc32)cc1)c1ccc(C(F)(F)F)cc1` (centres undefined), for which the Activity worked out at 9.8% in the series on Staphylococcus aureus [1], 87.7% with Staphylococcus aureus [8], 94.3% with Staphylococcus aureus [11] and 26% with Staphylococcus aureus [15]. The MBC with Staphylococcus aureus [2] and in the series on Staphylococcus aureus [14] was 4 µg/mL (≈ 9.19 µM) in each case. Also, the MIC in the series on Escherichia coli is 4 µg/mL (≈ 9.19 µM); in the series with Enterococcus faecium, 64 µg/mL (≈ 147 µM); with Staphylococcus aureus [9], 4 µg/mL (≈ 9.19 µM); in series [12], 16 µg/mL (≈ 36.7 µM); in the series with Ralstonia solanacearum, 4 µg/mL (≈ 9.19 µM); with Staphylococcus aureus [17], 4 µg/mL (≈ 9.19 µM). In addition, the viability at 24 h in series [3] and in [10] was greater than 95% in each case. Further, the Ratio in the series on Staphylococcus aureus [4] is less than 4; with Staphylococcus aureus [16], 1. The result in the series with Staphylococcus aureus [5] and with Staphylococcus aureus [7] was Active. The values for the PAE with Staphylococcus aureus [6] and in the series on Staphylococcus aureus [13] were 1.78 h and 2.63 h, respectively.
With `CO[C@H]1/C=C/O[C@@]2(C)Oc3c(C)c(O)c4c(O)c(c(/C=N/N5CCN(C)CC5)c(O)c4c3C2=O)NC(=O)/C(C)=C\C=C\[C@H](C)[C@H](O)[C@@H](C)[C@@H](O)[C@@H](C)[C@H](OC(C)=O)[C@@H]1C` [RIFAMPIN], the MBC in the series with Staphylococcus aureus [2] came out at 1 µg/mL (≈ 1.22 µM); in the series on Staphylococcus aureus [14], 2 µg/mL (≈ 2.43 µM). Also, the values for the Ratio with Staphylococcus aureus [18] and in the series with Staphylococcus aureus [19] were 256 and 1024, respectively. For the same compound, the minimum inhibitory concentration (MIC) in the series on Staphylococcus aureus [9] and in the series with Staphylococcus aureus [17] was 0.25 µg/mL (≈ 0.304 µM) each time.
Regarding `O=C(O)c1cn(C2CC2)c2cc(N3CCNCC3)c(F)cc2c1=O` [CIPROFLOXACIN], the MBC with Staphylococcus aureus [2] worked out at 2 µg/mL (≈ 6.04 µM). For the same compound, the MIC was greater than 128 µg/mL in the series on Enterococcus faecium; 0.5 µg/mL (≈ 1.51 µM) in the series on Staphylococcus aureus [9]; 0.5 µg/mL (≈ 1.51 µM) in series [12]; 0.25 µg/mL (≈ 0.754 µM) with Ralstonia solanacearum; 0.5 µg/mL (≈ 1.51 µM) with Staphylococcus aureus [17]. Further, the result in the series with Staphylococcus aureus [20] was Active. The results for the PAE with Staphylococcus aureus [21] and in the series on Staphylococcus aureus [22] were 1.79 h and 1.18 h, respectively.
Turning to GENTAMICIN, the values for the minimal bactericidal concentration (MBC) in the series with Staphylococcus aureus [2] and with Staphylococcus aureus [14] were greater than 128 µg/mL and 8 µg/mL, respectively. Further, the MIC is 4 µg/mL in the series on Escherichia coli; greater than 128 µg/mL in the series with Enterococcus faecium; 4 µg/mL with Staphylococcus aureus [9]; 8 µg/mL in series [23]; 16 µg/mL in the series on Ralstonia solanacearum; greater than 128 µg/mL in the series on Staphylococcus aureus [17].
With `O=C(Nc1ccc(C2NCCc3c2[nH]c2ccccc32)cc1)c1ccc(F)cc1` (centres undefined), the MBC in the series with Staphylococcus aureus [2] and with Staphylococcus aureus [14] was 8 µg/mL (≈ 20.8 µM) each time. Moreover, the MIC in the series with Escherichia coli is 16 µg/mL (≈ 41.5 µM); in the series with Enterococcus faecium, greater than 128 µg/mL; in the series on Staphylococcus aureus [9], 4 µg/mL (≈ 10.4 µM); in series [12] it was 64 µg/mL (≈ 166 µM); with Ralstonia solanacearum, 4 µg/mL (≈ 10.4 µM); with Staphylococcus aureus [17], 4 µg/mL (≈ 10.4 µM). The viability at 24 h in series [3] and in series [10] was greater than 95% each time. Besides, the Ratio in the series with Staphylococcus aureus [4] is given as less than 4; in the series on Staphylococcus aureus [16], 1. The result with Staphylococcus aureus [5] and in the series on Staphylococcus aureus [7] was Active. In addition, the PAE was found to be 0.95 h with Staphylococcus aureus [6] and 1.28 h in the series with Staphylococcus aureus [13].

The values are drawn from ChEMBL document CHEMBL5576067, “Synthesis and biological evaluation of novel 1,2,3,4-tetrahydro-β-carboline derivatives as potential antibacterial agents” (Bioorg Med Chem Lett, 2024).
